Test results reported in PubChem BioAssay AID1963831 (Molecular Pharmacology Branch, DTP, NCI, 2024).

System: 889142-216-R-J1-PDC complex spheroid viability
Test: Anticancer human tumor 889142-216-R-J1-PDC patient-derived bladder carcinoma cell line growth inhibition [POLQ]
Conditions: for IC50: curve of first compound; for viability, T/C: stronger effect = lower value
In short: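 Three-cell-type spheroids modelling solid tumor plus stroma served as the readout system; POL inhibitors were tested individually and in combination, concentration ranges set by clinical Cmax where known.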

[1] = second compound 0.0316 µM, first compound 0.0316 µM
[2] = second compound 0.0316 µM, first compound 0.1 µM
[3] = second compound 0.0316 µM, first compound 0.316 µM
[4] = second compound 0.0316 µM, first compound 1 µM
[5] = second compound 0.0316 µM, first compound 3.16 µM
[6] = second compound 0.0316 µM, first compound 10 µM
[7] = second compound 0.1 µM, first compound 0.0316 µM
[8] = second compound 0.1 µM, first compound 0.1 µM
[9] = second compound 0.1 µM, first compound 0.316 µM
[10] = second compound 0.1 µM, first compound 1 µM
[11] = second compound 0.1 µM, first compound 3.16 µM
[12] = second compound 0.1 µM, first compound 10 µM
[13] = second compound 0.316 µM, first compound 0.0316 µM
[14] = second compound 0.316 µM, first compound 0.1 µM
[15] = second compound 0.316 µM, first compound 0.316 µM
[16] = second compound 0.316 µM, first compound 1 µM
[17] = second compound 0.316 µM, first compound 3.16 µM
[18] = second compound 0.316 µM, first compound 10 µM
[19] = second compound 1 µM, first compound 0.0316 µM
[20] = second compound 1 µM, first compound 0.1 µM
[21] = second compound 1 µM, first compound 0.316 µM
[22] = second compound 1 µM, first compound 1 µM
[23] = second compound 1 µM, first compound 3.16 µM
[24] = second compound 1 µM, first compound 10 µM
[25] = second compound 3.16 µM, first compound 0.0316 µM
[26] = second compound 3.16 µM, first compound 0.1 µM
[27] = second compound 3.16 µM, first compound 0.316 µM
[28] = second compound 3.16 µM, first compound 1 µM
[29] = second compound 3.16 µM, first compound 3.16 µM
[30] = second compound 3.16 µM, first compound 10 µM
[31] = second compound 10 µM, first compound 0.0316 µM
[32] = second compound 10 µM, first compound 0.1 µM
[33] = second compound 10 µM, first compound 0.316 µM
[34] = second compound 10 µM, first compound 1 µM
[35] = second compound 10 µM, first compound 3.16 µM
[36] = second compound 10 µM, first compound 10 µM
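Also: spheroids exposed to compounds for seven days.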
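For viability, T/C in this document: 100% = DMSO vehicle control viability.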

`COc1ccc([C@@H](O)c2cc(-c3ncnc4cc(N5CCOCC5)ccc34)c(F)cc2Cl)nn1` + Nc1ccc(C#CCN(C(=O)Cc2ncc(C(F)(F)F)cc2C(F)(F)F)c2ccc(F)cc2)nn1 gave an IC50 (second compound 0.0316 µM) of 3.14 µM, an IC50 (second compound 0.1 µM) of 5.02 µM and an IC50 (second compound 0.316 µM) of 4.55 µM. For the same molecule, the IC50 (second compound 1 µM) was 5.06 µM, the IC50 (second compound 3.16 µM) was 5.83 µM and the IC50 (second compound 10 µM) was 6.74 µM. It also gave a viability, T/C [1] of 84.6%, a viability, T/C [2] of 80.6% and a viability, T/C [3] of 81.5%. It also gave a viability, T/C [4] of 87.8%, a viability, T/C [5] of 49.8% and a viability, T/C [6] of 35.2%. For the same molecule, the viability, T/C [7] was 113%, the viability, T/C [8] was 77.5% and the viability, T/C [9] was 80%. It also gave a viability, T/C [10] of 73.4%, a viability, T/C [11] of 56.8% and a viability, T/C [12] of 39.5%. It also gave a viability, T/C [13] of 87.5%, a viability, T/C [14] of 95% and a viability, T/C [15] of 72.9%. It also gave a viability, T/C [16] of 72.8%, a viability, T/C [17] of 54% and a viability, T/C [18] of 39.6%. It also gave a viability, T/C [19] of 86.2%, a viability, T/C [20] of 72.1% and a viability, T/C [21] of 72.4%. It also gave a viability, T/C [22] of 65.9%, a viability, T/C [23] of 62.2% and a viability, T/C [24] of 37.8%. The viability, T/C [25] was 74.3%, the viability, T/C [26] was 65.4% and the viability, T/C [27] was 73.8%. For the same molecule, the viability, T/C [28] was 65.2%, the viability, T/C [29] was 63.2% and the viability, T/C [30] was 39.3%. For the same molecule, the viability, T/C [31] was 105%, the viability, T/C [32] was 77.9% and the viability, T/C [33] was 96.7%. It also gave a viability, T/C [34] of 60.1%, a viability, T/C [35] of 56.6% and a viability, T/C [36] of 47.5%.

`COc1cccc2c1C(=O)c1c(O)c3c(c(O)c1C2=O)CC(O)(C(=O)CO)CC3OC1CC(N)C(O)C(C)O1` (stereo unspecified) + Cc1cccc(N(C)C(=O)C2C(O)CCN2c2nc(C)cc(C(F)(F)F)c2C#N)c1 was tested, and the IC50 (second compound 0.0316 µM) was 0.244 µM, the IC50 (second compound 0.1 µM) was 0.148 µM and the IC50 (second compound 0.316 µM) was 0.15 µM. For the same molecule, the IC50 (second compound 1 µM) was 0.196 µM, the IC50 (second compound 3.16 µM) was 0.183 µM and the IC50 (second compound 10 µM) was 0.135 µM. The viability, T/C [1] was 70.9%, the viability, T/C [2] was 69.3% and the viability, T/C [3] was 44.2%. It also gave a viability, T/C [4] of 2.17%, a viability, T/C [5] of 0.48% and a viability, T/C [6] of 1.56%. For the same molecule, the viability, T/C [7] was 77%, the viability, T/C [8] was 56.6% and the viability, T/C [9] was 34.7%. For the same molecule, the viability, T/C [10] was 2.14%, the viability, T/C [11] was 1.04% and the viability, T/C [12] was 1.26%. For the same molecule, the viability, T/C [13] was 57.3%, the viability, T/C [14] was 59.7% and the viability, T/C [15] was 35.2%. The viability, T/C [16] was 4.5%, the viability, T/C [17] was 0.81% and the viability, T/C [18] was 0.94%. It also gave a viability, T/C [19] of 58.9%, a viability, T/C [20] of 78% and a viability, T/C [21] of 37%. The viability, T/C [22] was 2.29%, the viability, T/C [23] was 1.29% and the viability, T/C [24] was 1.22%. It also gave a viability, T/C [25] of 61.8%, a viability, T/C [26] of 69% and a viability, T/C [27] of 36.2%. For the same molecule, the viability, T/C [28] was 1.55%, the viability, T/C [29] was 1.05% and the viability, T/C [30] was 0.85%. The viability, T/C [31] was 55.7%, the viability, T/C [32] was 62.4% and the viability, T/C [33] was 24.7%. For the same molecule, the viability, T/C [34] was 0.91%, the viability, T/C [35] was 0.87% and the viability, T/C [36] was 1.31%.

`O=C(Nc1ccc(O)c(NS(=O)(=O)c2ccc(F)cc2)c1)c1ccc(-c2ccccc2)cc1` + COC1C(OC(N)=O)C(O)C(Oc2ccc3c(O)c(NC(=O)c4ccc(O)c(CC=C(C)C)c4)c(=O)oc3c2C)OC1(C)C gave an IC50 (second compound 0.0316 µM) greater than 10 µM, an IC50 (second compound 0.1 µM) greater than 10 µM and an IC50 (second compound 0.316 µM) greater than 10 µM. The IC50 (second compound 1 µM) was greater than 10 µM, the IC50 (second compound 3.16 µM) was greater than 10 µM and the IC50 (second compound 10 µM) was greater than 10 µM. The viability, T/C [1] was 122%, the viability, T/C [2] was 98.7% and the viability, T/C [3] was 115%. For the same molecule, the viability, T/C [4] was 116%, the viability, T/C [5] was 116% and the viability, T/C [6] was 67.2%. It also gave a viability, T/C [7] of 93.9%, a viability, T/C [8] of 90.7% and a viability, T/C [9] of 92.6%. The viability, T/C [10] was 108%, the viability, T/C [11] was 111% and the viability, T/C [12] was 64.7%. The viability, T/C [13] was 128%, the viability, T/C [14] was 110% and the viability, T/C [15] was 99.9%. The viability, T/C [16] was 125%, the viability, T/C [17] was 139% and the viability, T/C [18] was 73.8%. It also gave a viability, T/C [19] of 103%, a viability, T/C [20] of 115% and a viability, T/C [21] of 114%. The viability, T/C [22] was 107%, the viability, T/C [23] was 105% and the viability, T/C [24] was 75.9%. It also gave a viability, T/C [25] of 87.7%, a viability, T/C [26] of 108% and a viability, T/C [27] of 96.2%. For the same molecule, the viability, T/C [28] was 117%, the viability, T/C [29] was 126% and the viability, T/C [30] was 73.6%. The viability, T/C [31] was 99.8%, the viability, T/C [32] was 103% and the viability, T/C [33] was 101%. The viability, T/C [34] was 118%, the viability, T/C [35] was 107% and the viability, T/C [36] was 63.7%.
